{
  "source": "patent US9320766B2",
  "about": "“Protective effects and application of a lactobacillus plantarum on the alleviation of lead toxicity” (priority 2012, dated 2016)",
  "key": {"lead-exposed mice [1]": {"test_system": "lead-exposed mice", "assay": "Oxidative damage caused by lead exposure (liver GSH and MDA)", "format": "in vivo", "settings": "mice fed 1 g/L lead acetate solution, daily treatment", "from_the_text": "40 healthy male Kunming mice of 20-25 g are taken and randomly divided into four groups: namely negative control group, lead acetate model group, Lactobacillus plantarum CCFM8661 treatment group and calcium disodium edetate (EDTANa2Ca) treatment group as positive control. The mice of negative control group are fed with ordinary drinking water and the mice of remaining three groups are fed with 1 g/L lead acetate solution to obtain the lead exposure models. The mice of Lactobacillus plantarum CCFM8661 treatment group are daily fed with the 2.0×10^9 cfu/mL skim milk suspension prepared in Example 3 of this Specification, and the mice of positive control treatment group are intraperitoneally injected with 5 g/L disodium edetate calcium agent every day. The blood is taken at the end of the experiment, and the livers are taken out after these mice are sacrificed. These organs are processed with the Ellmam method (Ellmam, G. C. Tissue sulfhydryl groups. Archives of biochemistry and biophysics 82(1): 70-77.) and the malondialdehyde (MDA) kit of Nanjing Jiancheng Bioengineering Institute to determine the glutathione (GSH) and MDA levels."}, "lead-exposed mice [2]": {"test_system": "lead-exposed mice", "assay": "Lead levels of lead-exposed mice", "format": "in vivo", "settings": "mice fed 1 g/L lead acetate solution; compared with lead model and negative control groups, FIG. 3", "from_the_text": "40 healthy male Kunming mice of 20-25 g are randomly divided into four groups: namely negative control group, lead acetate model group, Lactobacillus plantarum CCFM8661 treatment group, and calcium disodium edetate treatment group as positive control. The mice of negative control group are fed with ordinary drinking water and the mice of remaining three groups are fed with 1 g/L lead acetate solution to obtain the lead exposure models. The mice of Lactobacillus plantarum CCFM8661 treatment group are daily fed with the 2.0×10^9 cfu/mL skim milk suspension prepared in Example 3 of Specifications, and the mice of positive control treatment group are intraperitoneally injected with 5 g/L disodium edetate calcium agent every day. The blood of mice is collected at the end of the experiment, and the liver, stomach and kidney are collected after these mice are sacrificed.\n40 healthy male Kunming mice of 20-25 g are taken and randomly divided into four groups: namely negative control group, lead acetate model group, Lactobacillus plantarum CCFM8661 treatment group and calcium disodium edetate treatment group as positive control. […] These organs are processed in accordance with above digestion processes, and then the lead levels can be determined with above atomic absorption spectrophotometry of Example 2."}},
  "note": "Marks after values point to notes of the source that are not given here.",
  "data": [
    {"compound": "O=C([O-])CN(CCN(CC(=O)[O-])CC(=O)[O-])CC(=O)[O-].[Ca+2].[Na+].[Na+]", "note": "[EDTANa2Ca, calcium disodium edetate]", "values": [
      {"measurement": "GSH (liver)", "setting": "lead-exposed mice [1]", "value": "2.15 ± 0.50^c mg/g protein"},
      {"measurement": "MDA (liver)", "setting": "lead-exposed mice [1]", "value": "0.15 ± 0.03^c nmol/mg protein"},
      {"measurement": "lead levels of mice blood, liver, stomach and kidney", "setting": "lead-exposed mice [2]", "value": "higher than that of the negative control group, but lower than that of the lead model control group"}
    ]}
  ]
}
